# Data reported in US7135466B2 (Kirin Beer Kabushiki Kaisha, priority 1999, dated 2006).
# Biological target: T1, c-kit (Homo sapiens, UniProt P10721)
# T1 construct: MO7e (human megakaryocytic leukemia cell line) which had been arrested for 20 hr; endogenous in cells; host or cells: MO7e human megakaryocytic leukemia cell line
# Test: Inhibitory activity against c-kit autophosphorylation (MO7e cells, h-SCF)
# Assay type: cell-based
# Conditions: MO7e cells, h-SCF stimulation; read-out: c-kit IC50
# How it was run: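 Ligand-induced c-kit tyrosine phosphorylation is measured in MO7e cells that were quiesced 20 hr and preincubated with compound for 1 hr prior to a 5 min pulse of 50 ng/ml human SCF. Phospho-c-kit is detected by anti-phosphotyrosine capture ELISA, A450.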
# T1 sequence (P10721 26-976): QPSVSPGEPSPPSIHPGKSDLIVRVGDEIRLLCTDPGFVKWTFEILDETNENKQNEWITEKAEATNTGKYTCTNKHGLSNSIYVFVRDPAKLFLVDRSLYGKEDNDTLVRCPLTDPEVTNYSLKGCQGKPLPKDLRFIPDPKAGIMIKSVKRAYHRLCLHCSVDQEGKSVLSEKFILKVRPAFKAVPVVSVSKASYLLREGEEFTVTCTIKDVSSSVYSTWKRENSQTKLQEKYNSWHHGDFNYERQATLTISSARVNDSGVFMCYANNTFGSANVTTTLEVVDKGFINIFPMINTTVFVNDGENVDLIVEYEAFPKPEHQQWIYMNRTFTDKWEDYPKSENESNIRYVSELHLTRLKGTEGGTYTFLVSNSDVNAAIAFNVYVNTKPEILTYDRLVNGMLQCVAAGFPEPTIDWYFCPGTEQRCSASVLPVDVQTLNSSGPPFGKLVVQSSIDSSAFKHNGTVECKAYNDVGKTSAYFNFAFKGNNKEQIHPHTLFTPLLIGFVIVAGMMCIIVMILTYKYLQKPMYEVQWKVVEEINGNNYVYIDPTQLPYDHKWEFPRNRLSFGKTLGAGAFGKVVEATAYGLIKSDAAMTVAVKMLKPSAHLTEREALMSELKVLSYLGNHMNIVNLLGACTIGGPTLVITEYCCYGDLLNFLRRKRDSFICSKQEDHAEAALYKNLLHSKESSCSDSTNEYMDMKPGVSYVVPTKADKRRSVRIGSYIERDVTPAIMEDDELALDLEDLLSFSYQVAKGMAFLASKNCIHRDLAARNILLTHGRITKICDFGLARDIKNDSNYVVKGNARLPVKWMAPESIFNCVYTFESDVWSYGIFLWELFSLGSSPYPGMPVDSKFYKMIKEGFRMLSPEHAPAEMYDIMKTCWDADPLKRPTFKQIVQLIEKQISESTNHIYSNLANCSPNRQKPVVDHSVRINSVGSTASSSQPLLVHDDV
row,IC50,Compound
1,552 nM,"COc1cc2nccc(Oc3ccc(NC(=S)NC(=O)c4ccccc4)cc3Cl)c2cc1OC [Example 918, N-Benzoyl-N′-{3-chloro-4-[(6,7-dimethoxy-4-quinolyl)oxy]phenyl}thiourea]"
2,448 nM,"COc1cc2ncnc(Oc3ccc(NC(=S)NC(=O)c4ccccc4Cl)cc3Cl)c2cc1OC [Example 920, N-(2-Chlorobenzoyl)-N′-{3-chloro-4-[(6,7-dimethoxy-4-quinazolinyl)oxy]phenyl}thiourea]"
3,440 nM,"COc1cc2nccc(Oc3ccc(NC(=S)NC(=O)c4ccccc4C(F)(F)F)cc3Cl)c2cc1OC [Example 924, N-{3-Chloro-4-[(6,7-dimethoxy-4-quinolyl)oxy]phenyl}-N′-[2-(trifluoromethyl)benzoyl]thiourea]"
4,289 nM,"COc1cc2ncnc(Oc3ccc(NC(=S)NC(=O)c4ccccc4Cl)cc3)c2cc1OC [Example 928, N-(2-Chlorobenzoyl)-N′-{4-[(6,7-dimethoxy-4-quinazolinyl)oxy]phenyl}thiourea]"

# Continued, compound first:
row,Compound,IC50
1,"COc1cc2nccc(Oc3ccc(NC(=S)NC(=O)c4ccccc4)cc3F)c2cc1OC [Example 911, N-Benzoyl-N′-{4-[(6,7-dimethoxy-4-quinolyl)oxy]-3-fluorophenyl}thiourea]",498 nM
2,"COc1cc2nccc(Oc3ccc(NC(=S)NC(=O)c4ccccc4C)cc3F)c2cc1OC [Example 912, N-{4-[(6,7-Dimethoxy-4-quinolyl)oxy]-3-fluorophenyl}-N′-(2-methylbenzoyl)thiourea]",497 nM
3,"COc1cc2nccc(Oc3ccc(NC(=S)NC(=O)c4ccccc4Cl)cc3F)c2cc1OC [Example 913, N-(2-Chlorobenzoyl)-N′-{4-[(6,7-dimethoxy-4-quinolyl)oxy]-3-fluorophenyl}thiourea]",563 nM
4,"COc1cc2nccc(Oc3ccc(NC(=S)NC(=O)c4ccccc4Br)cc3F)c2cc1OC [Example 914, N-(2-Bromobenzoyl)-N′-{4-[(6,7-dimethoxy-4-quinolyl)oxy]-3-fluorophenyl}thiourea]",299 nM
5,"COc1cc2nccc(Oc3ccc(NC(=S)NC(=O)c4ccccc4Br)cc3Cl)c2cc1OC [Example 922, N-(2-Bromobenzoyl)-N′-{3-chloro-4-[(6,7-dimethoxy-4-quinolyl)oxy]phenyl}thiourea]",365 nM

# Same assay, conditions: Mo7e, figure in parentheses in −( ); at 1000 nM
row,inhibition at 1 µM,Compound
1,38%,"COc1cc2nccc(Oc3ccc(NC(=S)NC(=O)c4ccccc4C(F)(F)F)c(F)c3)c2cc1OC [Example 910, N-{4-[(6,7-Dimethoxy-4-quinolyl)oxy]-2-fluorophenyl}-N′-[2-(trifluoromethyl)benzoyl]thiourea]"
2,11%,"COc1cc2nccc(Oc3ccc(NC(=S)NC(=O)c4ccccc4C)cc3Cl)c2cc1OC [Example 919, N-{3-Chloro-4-[(6,7-dimethoxy-4-quinolyl)oxy]phenyl}-N′-(2-methylbenzoyl)thiourea]"
3,42%,"COc1cc2nccc(Oc3ccc(NC(=S)NC(=O)c4ccccc4F)cc3Cl)c2cc1OC [Example 921, N-{3-Chloro-4-[(6,7-dimethoxy-4-quinolyl)oxy]phenyl}-N′-(2-fluorobenzoyl)thiourea]"
4,31%,"COc1cc2ncnc(Oc3ccc(NC(=S)NC(=O)c4ccccc4)cc3)c2cc1OC [Example 926, N-Benzoyl-N′-{4-[(6,7-dimethoxy-4-quinazolinyl)oxy]phenyl}thiourea]"
5,21%,"COc1cc2ncnc(Oc3ccc(NC(=S)NC(=O)c4ccccc4OC)cc3)c2cc1OC [Example 929, N-{4-[(6,7-Dimethoxy-4-quinazolinyl)oxy]phenyl}-N′-(2-methoxybenzoyl)thiourea]"

# More lines, now with the values behind:
row,Compound,inhibition at 1 µM
1,"COc1cc2nccc(Oc3ccc(NC(=S)NC(=O)c4ccccc4OC)cc3F)c2cc1OC [Example 916, N-{4-[(6,7-Dimethoxy-4-quinolyl)oxy]-3-fluorophenyl}-N′-(2-methoxybenzoyl)thiourea]",16%
2,"COc1cc2nccc(Oc3ccc(NC(=S)NC(=O)c4ccccc4OC)cc3Cl)c2cc1OC [Example 923, N-{3-Chloro-4-[(6,7-dimethoxy-4-quinolyl)oxy]phenyl}-N′-(2-methoxybenzoyl)thiourea]",25%
